“And” between values parts separate entries of the source, which are not always exact repeats. Equal entries are not always repeated. “Also recorded” adds a separate entry of the source. Where two headings read alike, the source gives them in different places.
Tests used:
lemon sharks [1] = experiment: Tonic immobility, Micropipette Assay; assay type: in vivo, N. brevirostris; conditions: for Comments (behavior observed): lemon / juvenile sharks, micropipette
Protocol: (§1) One bioassay used to observe and measure flight response is the tonic immobility test. Tonic immobility is a state of paralysis that typically occurs when a shark is subject to inversion of its body along the longitudinal axis. This state is called “tonic,” and the shark can remain in this state for up to 15 minutes thereby allowing researchers to observe effects of chemical repellents. The “tonic” state of the shark is first established by releasing seawater in proximity to the “tonic” shark with the same delivery instrument and at the same distance as a “test” repellent compound will be released. Some controls are released with a high flow rate (30 mL/sec) in order to establish that sharks are not awakened by a jet of fluid over their noses. Once behavioral controls are established, a compound or composition that may have a repelling effect is delivered to the shark. If the compound or composition engenders a flight response, the shark will awaken from the tonic state and rapidly attempt to flee the delivered repellent. Using this tonic immobility bioassay researches can quantify the strength of a repellent effect.
A fourth method of delivery was called the “Micropipette Assay” method of delivery. In this method, a very small dose (fraction of a mL) of a test substance was delivered directly into a shark's mouth. […] A response, such as a cough or other notable action of the shark, was usually noted when effective gustatory repellents were delivered directly into a shark's mouth while in tonic immobility.
The Micropipette Assay method has not proven to be a particularly effective method of assaying for a flight response in elasmobranchs. The Micropipette Assay method is, nevertheless, an excellent method for specifying that a gustatory response has occurred. It is effective for specifying a gustatory response because the micropipette delivery method allows direct delivery of an entire bolus of test substance into the mouth of the shark being tested.
Using a microliter syringe or microliter pipette, a bolus of test chemical can be directed precisely into one of the shark's nares, or its mouth. […] Olfactory repellents will terminate tonic immobility almost immediately when injected into a nare of the shark.
(§2) Lemon, nurse, blacktip and tiger sharks were placed in tonic immobility by inverting the shark's body along its longitudinal axis. […] The “tonic” state of each shark was first established by releasing a control of seawater in proximity to the shark with the same delivery instrument and at the same distance as the chemical repellent would later be delivered. In certain controls, sea water was released with a high flow rate (30 mL/sec) in order to establish that the sharks would not be awakened by a jet of fluid over their noses.
(§3) Once behavioral controls were established, the chemical repellent was delivered to the shark using the Hd Syringe Assay method, the Syringe 3/5/10 Assay method, the Bite Assay method or the Micropipette Assay method. […] If tonic immobility was terminated, the positive response was denoted as “Y.” If tonic immobility was not terminated but a behavior change within tonic immobility was noted, such as the opening of the mouth or a cough, the response was denoted as an “R” for reduced response. If no behavior change was observed, the negative response was denoted “N.”
Further because the Micropipette assays were often done serially on the same set of sharks, second and third doses of the repellent over time would be expected to evoke less of a reaction. Nevertheless, the small doses delivered to the shark in the Micropipette assay provide important data on whether a compound is a gustatory stimulant because the small dose may be delivered directly into the mouth of the shark. This eliminates any olfactory response that might be acting in concert with a gustatory response to terminate tonic immobility.

juvenile sharks = experiment: Initial tonic immobility assays, mouth delivery by micropipette or syringe; assay type: in vivo; conditions: introduced to the mouth using a micropipette or syringe
[2] = system: sharks (lemon, nurse, tiger pooled); experiment: Tonic immobility, Hd Syringe Assay, summary over species; assay type: in vivo; conditions: species pooled
Protocol: as §1
In Hd-Syringe Assays, the 3-methylbutanal was delivered to the shark's mouth and nares using a 3 mL hypodermic syringe fitted with a 22 gauge needle. The needle was held within 3 inches of the shark's mouth and the test repellent was slowly released from the syringe with a very fine plume in the water column. Any response was denoted. If a response occurred during a measurable time after delivery of the test chemical, the time between delivery and response was noted. If a response occurred immediately or the response occurred before a measurable time could be established, no time to response was noted.

lemon sharks [3] = experiment: Tonic immobility, Syringe Assay; assay type: in vivo, N. brevirostris
Protocol: as §1
(§4) A second delivery method called the “Syringe Assay” method delivered a dose of 60 mL or more of a test chemical repellent from at least one foot, and up to as many as five feet, from a shark. The distance of delivery was determined based on the strength of the water current in the direction of the shark. Time from delivery of the test substance until response was observed, measured and recorded. The “Syringe” method allows a researcher to observe how a diffusing and diluting cloud of test chemical repellent affects the shark's behavior when the shark encounters the delivered cloud of test substance. The “Syringe” method requires relatively large doses because of the diffusion of the cloud over time and distance. Time from delivery to response is related to the size of the bolus delivered from the syringe, distance of the shark from the syringe and water current.
as §2, §3
(§5) In the Syringe assay about 60 mL or more of valeraldehyde was delivered from one to as many as five feet from the shark depending on the water current. […] Time from delivery to response was related to the size of the bolus delivered from the syringe, distance of the shark from the syringe and water current.

nurse sharks = experiment: Tonic immobility, Syringe Assay; assay type: in vivo, C. cirratum
[4] = system: sharks (lemon, nurse, blacknose, blacktip pooled); experiment: Tonic immobility, Syringe Assay, summary over species; assay type: in vivo
Protocol: as §1, §4, §5

sharks (species pooled) = experiment: Tonic immobility, total of delivery methods not including Micropipette assays; assay type: in vivo; conditions: species and delivery methods pooled
Protocol: as §1
Table 1, which summarizes the data in Tables 14 and 15, evidences the gustatory repellent characteristics of methylbutanals. In 35 of 36 assays (combining columns “Y” and “R” under the column labeled “Total (Not including Micropipette Assays)” to arrive at a 97% effectiveness rate), including assays on lemon, nurse, tiger and blacktip sharks, the gustatory repellent activity of 3-methylbutanal was established. In 81% of assays, tonic immobility was fully terminated. […] In only a single assay did a shark not respond to treatment with 3-methylbutanal.

[5] = system: Caribbean reef sharks and blacknose sharks; experiment: Cage Assay on free-swimming sharks; assay type: in vivo, C. perezii, C. acronotus; conditions: for Cage Y (repellent activity), trials of trials: 500 mL delivered at baited cage; for number of strikes at the baited cage / return of sharks / interactions with the baited cage after 10 minutes: 500 mL of 50% w/w in diethylene glycol monoethyl ether
Description: Another bioassay used to observe a flight response in sharks is a free-swimming test using a small metal cage containing bait. This assay is referred to as a “Cage Assay.” The cage with bait is suspended below a float in the water column. A ⅜ inch diptube is secured from the cage to the boat and carried chemical compounds to the proximity of the cage where the test substances were delivered. Sharks are drawn to the vicinity of the boat with chum. Sharks are observed to immediately bump and bite at the cage wherein bait was contained. The number of interactions between the sharks and the cage are recorded over time. Test chemical repelling substance is delivered to the vicinity of the cage through the diptube. The frequency of bumps and strikes by sharks against the cage is then monitored and recorded. If bumps and strikes by sharks cease for a period of time, that time period is also recorded. In the free-swim ring tests disclosed herein using a baited cage, the volume of test chemical repellent delivered into the vicinity of the cage was about 500 mL.
A series of chemical repellent tests on free-swimming Caribbean reef sharks (C. perezii) and blacknose sharks (C. acronotus) was performed in tropical waters. A small metal cage containing bait was suspended below a float in the water column. A ⅜″ ID HDPE diptube was secured from the cage to the boat, so that chemical compounds could be transported to the cage's proximity. Sharks were stimulated using bunker chum in bags.
The number of interactions was recorded using an underwater pole-camera.

SMILES: Cc1cccnc1N [2-amino-3-picoline 95%, 2-amino-3-picoline]
- Comments (behavior observed) (lemon sharks [1]): violent seizure; also recorded: VIOLENT/SEIZURE
- Comments (behavior observed) (lemon sharks [1]; listed as aminopicoline): violent responses
- Micropipette assays terminating tonic immobility (lemon sharks [1]; lemon sharks): one
- Micropipette assays with a response (lemon sharks [1]; lemon sharks): two of two

SMILES: Cc1ncccc1N [3-amino-2-picoline]
- result of initial tonic immobility assays (juvenile sharks): terminated tonic immobility

SMILES: Cc1cccnc1 [3-methylpyridine]
- Hd-Syringe Y (termination of tonic immobility), trials of trials [2]: three of three and 3/3
- result of initial tonic immobility assays (juvenile sharks): terminated tonic immobility

SMILES: CCCC=O [Butyraldehyde, butyraldehyde]
- Syringe assays terminating tonic immobility (text) (lemon sharks [3]): resulting in termination of tonic immobility
- Syringe assays terminating tonic immobility (text) (nurse sharks): two
- Syringe assays with no response (nurse sharks): one
- Syringe Y (termination of tonic immobility), trials of trials [4]: 4/4
- Syringe Y (termination of tonic immobility), trials of trials ([4]; listed as butyraldehyde): 4 of 5
- Total (Not including Micropipette assays / Effective Delivery Methods) Y, trials of trials (sharks (species pooled)): 4/4
- Total Y, percent of trials (sharks (species pooled)): 100%

SMILES: CC(C)c1ccc(C=O)cc1 [Cuminaldehyde, cuminaldehyde]
- Syringe assays terminating tonic immobility (text) (lemon sharks [3]): resulted in termination of tonic immobility
- Syringe Y (termination of tonic immobility), trials of trials [4]: 1/1
- Syringe Y (termination of tonic immobility), trials of trials ([4]; listed as cuminaldehyde): terminated
- Total (Not including Micropipette assays / Effective Delivery Methods) Y, trials of trials (sharks (species pooled)): 1/1

SMILES: CC(=O)/C=C/C1C(C)=CCCC1(C)C (stereo not drawn) [Ionone, alpha-ionone]
- Cage Y (repellent activity), trials of trials [5]: 1/1
- number of strikes at the baited cage ([5]; listed as alpha-ionone): reduced
- return of sharks / interactions with the baited cage after 10 minutes ([5]; listed as alpha-ionone): interactions continued after a 10 minute period
- number of strikes at the baited cage ([5]; listed as ionone): decrease in the number of strikes
- return of sharks / interactions with the baited cage after 10 minutes ([5]; listed as ionone): lull in feeding for 10 minutes

SMILES: O=Cc1ccc2c(c1)OCO2 [Piperonal, piperonal]
- Cage Y (repellent activity), trials of trials [5]: 1/1
- number of strikes at the baited cage [5]: decrease in the number of strikes; also recorded: dramatically reduced
- return of sharks / interactions with the baited cage after 10 minutes [5]: did not return; also recorded: interactions ceased
- Total (Not including Micropipette assays / Effective Delivery Methods) Y, trials of trials (sharks (species pooled)): 1/1

SMILES: Cc1ccc(C=O)cc1 [Tolualdehyde, p-tolualdehyde]
- Syringe assays terminating tonic immobility (text) (lemon sharks [3]; listed as p-tolualdehyde): termination of tonic immobility
- Syringe assays terminating tonic immobility (text) (lemon sharks [3]; listed as tolualdehyde): terminated
- Syringe Y (termination of tonic immobility), trials of trials [4]: 1/1

SMILES: COc1cc(CCC(C)=O)ccc1O [Zingerone, zingerone]
- Cage Y (repellent activity), trials of trials [5]: 1/1
- number of strikes at the baited cage [5]: decrease in the number of strikes; also recorded: reduced
- return of sharks / interactions with the baited cage after 10 minutes [5]: lull in feeding for 10 minutes; also recorded: interactions continued after a 10 minute period

SMILES: Cc1ccccn1 [alpha-picoline, 2-methylpyridine]
- result of initial tonic immobility assays (juvenile sharks): terminated tonic immobility

SMILES: Cc1cc(=O)n(-c2ccccc2)n1C [antipyrine solution, antipyrine]
- Micropipette assays with a response (lemon sharks [1]; lemon sharks): a response was observed; also recorded: evoked a response in one assay
- Micropipette assays with no response (lemon sharks [1]; lemon sharks): no response; also recorded: did not evoke a response in another

SMILES: Cc1cc(C)nc(C)c1 [collidine]
- result of initial tonic immobility assays (juvenile sharks): terminated tonic immobility

SMILES: CCCCCCCCCC=O [decanal]
- Syringe assays terminating tonic immobility (text) (lemon sharks [3]): terminated
- Syringe assays terminating tonic immobility (text) (nurse sharks): terminated
- Syringe Y (termination of tonic immobility), trials of trials [4]: 1/1

SMILES: Cc1ccncc1 [gamma-picoline, 4-methylpyridine]
- result of initial tonic immobility assays (juvenile sharks): terminated tonic immobility

SMILES: CCCCCCC=O [heptanal]
- Syringe assays with no response (lemon sharks [3]): no response
- Syringe N (no response), trials of trials [4]: no response and 1/1

SMILES: Cc1cccc(C)n1 [lutidine]
- result of initial tonic immobility assays (juvenile sharks): terminated tonic immobility

SMILES: CC(=O)C=C(C)C [mesityl oxide]
- Syringe assays terminating tonic immobility (text) (lemon sharks [3]): terminated
- Syringe Y (termination of tonic immobility), trials of trials [4]: 1/1

SMILES: CCCCCCCCC=O [nonanal]
- Syringe assays terminating tonic immobility (text) (lemon sharks [3]): terminated
- Syringe Y (termination of tonic immobility), trials of trials [4]: 1/1

SMILES: CCCCCCCC=O [octanal]
- Syringe assays terminating tonic immobility (text) (lemon sharks [3]): terminated
- Syringe Y (termination of tonic immobility), trials of trials [4]: 1/1

SMILES: COc1ccc(C=O)cc1OC [veratraldehyde]
- Syringe assays with no response (nurse sharks): no response
- Micropipette assays with a response (lemon sharks [1]; lemon sharks): eight of twelve
- Micropipette assays with no response (lemon sharks [1]; lemon sharks): four
- Syringe N (no response), trials of trials [4]: one of seven and 1/7
- Syringe Y (termination of tonic immobility), trials of trials [4]: six of seven and six of six and 6/7

Source: patent US9456589B2, “Elasmobranch-repelling compounds and methods of use” (priority 2005, dated 2016)
